Assay results from the supplement of paper PMC10307832.

Columns and labels:
Assay in all cases: relative viability (nuclei count vs DMSO), 5 days (fraction); higher = more cells survive
AZD8055 + Navitoclax = compound: COc1ccc(-c2ccc3c(N4CCOC[C@@H]4C)nc(N4CCOC[C@@H]4C)nc3n2)cc1CO [AZD8055] + CC1(C)CCC(c2ccc(Cl)cc2)=C(CN2CCN(c3ccc(C(=O)NS(=O)(=O)c4ccc(N[C@H](CCN5CCOCC5)CSc5ccccc5)c(S(=O)(=O)C(F)(F)F)c4)cc3)CC2)C1 [Navitoclax] (partner 0.5 µM)
In short: (§1)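 Lung cancer cell lines were pin-tool dosed in 1536-well plates on the day after seeding, with either a lone drug or a fixed anchor-drug dose plus five library-drug doses (not always all listed) in √10 steps. Nuclei were counted on 4× images after 5 days. Relative viability is the ratio of treated-well to vehicle-well nuclei counts, with each value a median of duplicate plates.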

AZD8055 + Luminespib = compound: COc1ccc(-c2ccc3c(N4CCOC[C@@H]4C)nc(N4CCOC[C@@H]4C)nc3n2)cc1CO [AZD8055] + CCNC(=O)c1noc(-c2cc(C(C)C)c(O)cc2O)c1-c1ccc(CN2CCOCC2)cc1 [Luminespib] (partner 0.01 µM)
In short: as §1

AZD8055 + Foretinib = compound: COc1ccc(-c2ccc3c(N4CCOC[C@@H]4C)nc(N4CCOC[C@@H]4C)nc3n2)cc1CO [AZD8055] + COc1cc2c(Oc3ccc(NC(=O)C4(C(=O)Nc5ccc(F)cc5)CC4)cc3F)ccnc2cc1OCCCN1CCOCC1 [Foretinib] (partner 0.25 µM)
In short: as §1

AZD8055 + Linsitinib = compound: COc1ccc(-c2ccc3c(N4CCOC[C@@H]4C)nc(N4CCOC[C@@H]4C)nc3n2)cc1CO [AZD8055] + C[C@]1(O)C[C@@H](c2nc(-c3ccc4ccc(-c5ccccc5)nc4c3)c3c(N)nccn32)C1 [Linsitinib] (partner 1 µM)
In short: as §1

Cell Line	relative viability (AZD8055 + Navitoclax; first compound 0.01 µM)	relative viability (AZD8055 + Navitoclax; first compound 0.03162 µM)	relative viability (AZD8055 + Navitoclax; first compound 0.1 µM)	relative viability (AZD8055 + Navitoclax; first compound 0.3162 µM)	relative viability (AZD8055 + Navitoclax; first compound 1 µM)	relative viability (AZD8055 + Luminespib; first compound 0.01 µM)	relative viability (AZD8055 + Luminespib; first compound 0.03162 µM)	relative viability (AZD8055 + Luminespib; first compound 0.1 µM)	relative viability (AZD8055 + Luminespib; first compound 0.3162 µM)	relative viability (AZD8055 + Luminespib; first compound 1 µM)	relative viability (AZD8055 + Foretinib; first compound 0.01 µM)	relative viability (AZD8055 + Foretinib; first compound 0.03162 µM)	relative viability (AZD8055 + Foretinib; first compound 0.1 µM)	relative viability (AZD8055 + Foretinib; first compound 0.3162 µM)	relative viability (AZD8055 + Foretinib; first compound 1 µM)	relative viability (AZD8055 + Linsitinib; first compound 0.01 µM)	relative viability (AZD8055 + Linsitinib; first compound 0.03162 µM)	relative viability (AZD8055 + Linsitinib; first compound 0.1 µM)	relative viability (AZD8055 + Linsitinib; first compound 0.3162 µM)	relative viability (AZD8055 + Linsitinib; first compound 1 µM)
NCI-H520	0.928	0.612	0.359	0.21	0.176	0.239	0.228	0.171	0.183	0.16	0.635	0.344	0.35	0.173	0.172	0.954	0.504	0.198	0.153	0.164
NCI-H596	0.975	0.67	0.369	0.288	0.241	0.961	0.813	0.44	0.343	0.346	0.79	0.551	0.474	0.319	0.335	0.991	0.792	0.457	0.386	0.395
NCI-H647	1.35	1.03	0.637	0.391	0.219	0.15	0.126	0.125	0.0957	0.121	1.18	0.941	0.61	0.405	0.229	1.18	0.942	0.601	0.439	0.167
NCI-H727	0.432	0.397	0.324	0.168	0.215	0.375	0.34	0.345	0.345	0.376	0.713	0.89	0.717	0.307	0.394	0.246	0.246	0.302	0.28	0.248
NCI-H838	0.985	0.627	0.347	0.358	0.305	0.317	0.223	0.234	0.156	0.196	1	0.913	0.597	0.398	0.347	0.664	0.383	0.32	0.208	0.25
NCI-H1355	0.959	0.736	0.382	0.21	0.21	0.601	0.369	0.234	0.238	0.206	0.865	0.77	0.712	0.332	0.278	0.684	0.543	0.354	0.234	0.214
NCI-H1395	1.4	0.97	0.797	0.654	0.498	0.669	0.379	0.684	0.445	0.36	0.982	0.774	0.835	0.505	0.528	1.1	0.828	0.708	0.553	0.522
NCI-H1437	1.23	1.09	0.921	0.344	0.213	1.28	1.26	1.23	0.775	0.365	1.38	1.37	1.24	0.869	0.482	0.832	0.731	0.425	0.143	0.155
